Data published in patent US9592223B2, “Small molecule inhibitors of MALT1” (Cornell University, priority 2012, dated 2017).

Key:
[1] = target: T1, LZ-MALT1 (MALT1 (340-789) fused with a leucine zipper dimerization motif) (Homo sapiens, UniProt Q9UDY8); assay: LZ-MALT1 fluorescence assay (Ac-LRSR-AMC cleavage), screening and concentration response; format: biochemical
T1 construct: His tag (N); made in house; host or cells: E. coli
Excerpt: We reasoned that MALT1 small-molecule inhibitors might be useful chemical tools for studying MALT1 biology and treating MALT1 addicted tumors. However, full-length MALT1 and its paracaspase domain (amino acids 340-789) are naturally present in physiological solutions as a monomer, which has very low proteolytic activity. Caspases generally must homodimerize for maximal catalytic activity (Pop et al., 2006; Walker et al., 1994; Yin et al., 2006) and accordingly the recently reported structures of the paracaspase domain of MALT1 in complex with a peptide inhibitor are dimeric (Wiesmann et al., 2012; Yu et al., 2011). […]
Ac-LRSR-AMC was used as substrate and reactions were measured with excitation/emission wavelengths of 360/465 nm. […] The final percent inhibition was calculated with the formula: {[fluorescencetest compound(T2-T1)−fluorescenceneg ctrl(T2−T1)]/[fluorescencepos ctrl(T2−T1)−fluorescenceneg ctrl(T2−T1)]}×100. […]
The screening consisted of a 20 μl reaction in 384-well black plates (Greiner Bio One, Wemmel, Belgium, catalogue #784076) with 100 nM LZ-MALT1, 200 μM Ac-LRSR-AMC, and 12.5 μM test compound in buffer A (20 mM HEPES pH 7.5, 10 mM KCl, 1.5 mM MgCl2, 1 mM EDTA, 1 mM DTT, 0.01% Triton X-100). The reactions were measured with excitation/emission wavelengths of 360/465 nm using Envision Multilabel Reader (Perkin-Elmer, Waltham, Mass.). […]

[2] = target: T2, LZ-MALT1 (Homo sapiens, UniProt Q9UDY8); assay: Dose-effect and time-course of MALT1 inhibition (pre-incubation, then Ac-LRSR-AMC); format: biochemical; settings: pre-incubation 5 to 80 minutes
T2 construct: His tag (N); made in house; host or cells: E. coli
T2 sequence (Q9UDY8 with tags, fused parts or gaps limits assumed): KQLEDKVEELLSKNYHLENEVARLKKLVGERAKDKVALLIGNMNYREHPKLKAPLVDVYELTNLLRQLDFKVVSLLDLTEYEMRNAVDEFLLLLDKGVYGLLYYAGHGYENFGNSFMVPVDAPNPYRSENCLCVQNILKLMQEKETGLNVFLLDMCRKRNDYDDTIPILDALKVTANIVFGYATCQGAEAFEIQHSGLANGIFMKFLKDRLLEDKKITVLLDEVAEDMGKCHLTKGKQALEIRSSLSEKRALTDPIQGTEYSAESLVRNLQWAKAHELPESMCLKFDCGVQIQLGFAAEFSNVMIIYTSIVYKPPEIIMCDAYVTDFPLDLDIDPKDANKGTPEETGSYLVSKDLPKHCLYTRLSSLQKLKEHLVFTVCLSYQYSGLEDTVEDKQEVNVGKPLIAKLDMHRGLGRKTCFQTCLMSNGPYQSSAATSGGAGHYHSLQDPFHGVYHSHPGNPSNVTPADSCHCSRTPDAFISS
Description: The reactions were monitored in a SpectraMax M5 plate reader (Molecular Devices, Sunnyvale, Calif. USA) with excitation/emission wavelength at 360/465 nm and 20 seconds intervals. Normalized percentage of inhibition was calculated with the following formula: (M(T2-T1)−N(T2-T1))/(P(T2-T1)−N(T2-T1))*100, where M(T2-T1) is the difference signal of compound at time point 200s and 0s, N(T2-T1) is the difference signal of negative control buffer only, P(T2-T1) is the difference signal of positive control Z-VRPR-FMK.

[3] = system: c-REL; assay: c-REL flow cytometry of whole cells or isolated nuclei, HBL-1 cells; format: cell-based, human; settings: 200 nM MI-2 or 50 μM Z-VRPR-FMK, 24 hr
Description: MALT1 mediates c-REL translocation to the nucleus following BCR stimulation (Ferch et al., 2007). […] This selectivity towards c-REL had also been previously shown in MALT1 knockout mice and after MALT1 cleavage inhibition by the MALT1 blocking peptide Z-VRPR-FMK (Ferch et al., 2009; Ferch et al., 2007; Hailfinger et al., 2011).
[…] was studied by flow cytometry. Cells were treated as indicated and total cells or isolated nuclei were prepared and stained for c-REL. Total cells were fixed and permeabilized using the Intrastain kit from Dako (Glostrup, Denmark). For nuclei extraction, cells were resuspended in cold nuclei extraction buffer (320 mM sucrose, 5 mM MgCl2, 10 mM HEPES, 1% Triton X-100 at pH 7.4), incubated for 10 min on ice and washed twice with nuclei wash buffer (320 mM sucrose, 5 mM MgCl2, 10 mM HEPES at pH 7.4, no Triton X-100). Nuclei yield and integrity were confirmed by microscopic examination with trypan blue staining. For labeling, nuclei wash buffer was supplemented with 1% BSA, 0.1% sodium azide and 1:100 c-REL antibody (Cell Signaling). Cells were washed then incubated with Alexa Fluor-488 conjugated secondary antibodies from Invitrogen. Cells were washed again and stained with DAPI followed by flow cytometry.

[4] = system: ABC-DLBCL MALT1 independent cell lines U2932 and HLY-1; assay: Growth inhibition, MALT1 independent ABC-DLBCL cell lines; format: cell-based, human; settings: 50 μM, 48 hr
Description: (§1) Endogenous MALT1 activity was evaluated by Western blotting for A20, BCL10 and CYLD; and NF-κB activation, by phospho-IκB-α and total IκB-α. Dependence on MALT1 proteolytic activity for proliferation was tested by 50[…]μM Z-VRPR-FMK treatment for 48 hr. […] The U2932 and HLY1 ABC-DLBCL cell lines harbor mutations in TAK1 and A20, which activate NF-κB signaling downstream of MALT1.
(§2) Cell proliferation was determined by ATP quantification using a luminescent method (CellTiter-Glo, Promega, Madison, Wis.) and Trypan blue dye-exclusion (Sigma, St. Louis, Mo.). Cell viability in drug-treated cells was normalized to their respective controls (fractional viability) and results are given as 1-fractional viability. […]
(§3) DLBCL cell lines were grown in exponential growth conditions during the 48 hr of treatment. Cell proliferation was determined by ATP quantification using a luminescent method (CellTiter-Glo, Promega, Madison, Wis.) and Trypan blue dye-exclusion (Sigma, St. Louis, Mo.). Luminescence was measured using the Synergy4 microplate reader (BioTek Instruments, Winooski, Vt.). Standard curves for each cell line were calculated by plotting the cell number (determined by the Trypan blue method) against their luminescence values and number of cells was calculated accordingly. […]

[5] = system: GCB-DLBCL cell lines OCI-Ly7 and OCI-Ly1; assay: Growth inhibition, GCB-DLBCL cell lines; format: cell-based, human; settings: 50 μM, 48 hr
Description: as §1, §2, §3

[6] = system: MALT1 dependent ABC-DLBCL cells HBL-1, TMD8, OCI-Ly3 and OCI-Ly10; assay: Growth inhibition, MALT1 dependent cell lines; format: cell-based, human; settings: 50 μM, 48 hr
Description: as §1, §2, §3

[7] = system: MALT1^WT NF-κB activation; assay: NF-κB reporter assay in 293T cells, PMA/ionomycin, BCL10 and MALT1 WT; format: cell-based; settings: pre-treatment
Excerpt: Antigen receptor-mediated NF-κB signaling partly depends on MALT1 activity (Ruefli-Brasse et al., 2003; Ruland et al., 2003). […] First, 293T cells were transfected with the NF-κB reporter vector (NF-κB)5-luc2CP-pGL4 (harboring 5 copies of the NF-κB consensus response element and a destabilized Firefly luciferase) and TK-pRL control together with plasmids expressing BCL10 and either MALT1^WT or MALT1^C464A. […] HBL-1 was transfected with the reporter construct (NF-κB)5-luc2CP-pGL4 and TK-pRL control.
Reporter assays were performed in 293T cells seeded at a density of 2×10^5 cells per well of a 12-well dish. 100 ng of (NF-κB)5-Luc2CP-pGL4 and 10 ng of TK-Renilla internal control plasmid were cotransfected along with 25 ng of the indicated plasmids (MIGR1-MALT1^WT or MIGR1-MALT1^C464A and pcDNA4-Flag-Bcl10) using Lipofectamine 2000 (Invitrogen). Lysates were submitted to dual luciferase assays following manufacturer's protocol (Promega). In HBL-1, 5 μg of (NF-κB)5-Luc2CP-pGL4 and 50 ng of TK-Renilla internal control plasmid per 5×10^6 cells were cotransfected using nucleofection (Amaxa, Lonza, Basel, Switzerland). Forty-eight hours after transfection, cells were plated at a density of 5×10^4 cells per well of a 24-well plate and treated as indicated. Lysates were submitted to dual luciferase assays following manufacturer's protocol (Promega).

T1 sequence (Q9UDY8 with tags, fused parts or gaps limits assumed): as above

Molecule | biochemical IC50 (in words) [1] | kind of inhibition (time dependence) [2] | percent MALT1 inhibition reached [2] [%] | nuclear c-REL ([3]; isolated nuclei) | whole cell c-REL ([3]; whole cells) | response of proliferation [4] | response of proliferation [5] | response of proliferation [6] | NF-κB induction by PMA/ionomycin stimulation [7]
COCCOc1nc(-c2cccc(OC)c2)n(-c2ccc(NC(=O)c3cccc([N+](=O)[O-])c3)cc2)n1 [MI-2A2] | lower IC50 | reversible inhibition | ~50 |  |  |  |  |  | 
Z-VRPR-FMK [reference compound] |  |  |  | reduced nuclear c-REL | without affecting whole cell levels | relatively little response | did not respond | inhibition of proliferation | significantly inhibited NF-κB induction
